Results on two molecules are retold here after US12012383B2, “Compositions and methods for inhibiting dihydroorotate dehydrogenase” (Clear Creek Bio, Inc., priority 2018, dated 2024).

Series [1] can be described thus: Adverse events in subjects receiving brequinar intravenously once a week (Example 2). The format is in vivo, human. As to conditions: 209 subjects, i.v. once a week, median dose 1200 mg/m^2.
For series [2], the system named is acute myeloid leukemia (AML). Description: Clinical response of patients with AML to brequinar-containing composition (Examples 9-11). Type of series: in vivo, human.
Series [3] deals with DHODH (Homo sapiens, UniProt Q02127). As to conditions: for DHO plasma level threshold achieved: after a dose.
For series [4], the system named is mouse model of AML. As to conditions: daily administration of high doses; cited from earlier work.
The subject of series [5] is advanced malignancies. As to conditions: cited from earlier work.
For series [6], the target named is DHODH (Mus musculus, UniProt O35435). Description: Plasma DHO in mice after brequinar 50 mg/kg (FIG. 6). As to conditions: at about 84 hours, FIG. 6 dashed line.
Series [7] has as its system solid malignancies. As to conditions: 43 patients; patient with papillary carcinoma of the thyroid (Schwartsmann); cited from earlier work.
Setting [8] is: Example 9, first patient with AML, threshold 1,600 ng/mL.
Setting [9] is: Example 10, second patient with AML, threshold 2,900 ng/mL.
The mark [10] stands for this setting: Example 11, patient with AML, threshold 133 ng/mL.

Where two headings read alike, the source gives them in different places. Where only a bound is given, the exact number is not on record here.

DHODH (Homo sapiens, UniProt Q02127), sequence (Q02127 whole entry): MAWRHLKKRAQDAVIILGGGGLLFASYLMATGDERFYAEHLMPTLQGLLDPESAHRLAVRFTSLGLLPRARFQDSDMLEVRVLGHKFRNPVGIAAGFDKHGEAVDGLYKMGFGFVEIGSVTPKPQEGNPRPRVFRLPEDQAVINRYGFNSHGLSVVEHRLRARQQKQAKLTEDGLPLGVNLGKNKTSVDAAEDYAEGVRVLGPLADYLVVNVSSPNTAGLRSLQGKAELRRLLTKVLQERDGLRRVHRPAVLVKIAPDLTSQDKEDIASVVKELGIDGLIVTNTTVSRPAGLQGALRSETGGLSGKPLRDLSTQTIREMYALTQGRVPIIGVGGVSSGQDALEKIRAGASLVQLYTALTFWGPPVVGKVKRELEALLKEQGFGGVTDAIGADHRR
DHODH (Mus musculus, UniProt O35435), sequence (O35435 whole entry): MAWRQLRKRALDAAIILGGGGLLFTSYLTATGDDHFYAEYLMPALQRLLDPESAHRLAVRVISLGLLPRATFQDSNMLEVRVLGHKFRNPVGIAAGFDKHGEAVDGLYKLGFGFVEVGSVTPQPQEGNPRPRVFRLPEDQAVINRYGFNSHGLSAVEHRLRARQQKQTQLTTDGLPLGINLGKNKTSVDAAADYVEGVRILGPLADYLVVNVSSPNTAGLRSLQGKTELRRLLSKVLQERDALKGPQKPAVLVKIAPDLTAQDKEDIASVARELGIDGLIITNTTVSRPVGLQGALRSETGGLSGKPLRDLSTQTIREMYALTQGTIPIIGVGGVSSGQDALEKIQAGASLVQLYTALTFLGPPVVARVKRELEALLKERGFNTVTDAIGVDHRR

For `Cc1c(-c2ccc(-c3ccccc3F)cc2)nc2ccc(F)cc2c1C(=O)O` [brequinar, 6-fluoro-2-(2′-fluoro-1,1′ biphenyl-4-yl)-3-methyl-4-quinoline carboxylic acid], the “Dyspepsia: No. of Patients Experiencing the AE, Max Grade 1” value in series [1] was determined as 6. For the same molecule, the clinical response entry in series [2] (Example 9, first patient with AML, bone marrow blast count, extramedullary hematopoiesis, differentiation of peripheral blasts) is listed as “positive response”; in series [2] (Example 10, second patient with AML, peripheral blasts, absolute neutrophil count, differentiation of peripheral blasts) it was “positive response”; in series [2] (Example 11, patient with AML, trend towards differentiation of peripheral blasts), “positive response”. Besides, the “DHO plasma level threshold achieved” value is on record as ≥ 1,600 ng/mL in series [3] (Example 9, first patient with AML); ≥ 2,900 ng/mL in series [3] (Example 10, second patient with AML); at least 133 ng/mL in series [3] (Example 11, patient with AML). In addition, the “time remained above DHO threshold” value in series [3] (setting [8]), in series [3] (setting [9]) and in series [3] (setting [10]) was 84 h throughout. The “time to achieve DHO plasma level threshold” value in series [3] (setting [8]) is “less than 24 hours”; in series [3] (setting [9]), below 24 h; in series [3] (setting [10]) it was “less than 2 hours”. Moreover, the “toxicity in mouse model of AML” value in series [4] is “weight loss, anemia, and thrombocytopenia”. In series [5] (650 mg/m^2 brequinar with 75 mg/m^2 cisplatin (Burris)), the “effect of combination on individual drug pharmacokinetic parameters” value is reported as “without significant modifications of individual drug pharmacokinetic parameters”. Moreover, the “brequinar dose that can be administered with full dose cisplatin” value in series [5] (brequinar days 1, 8 and 15 with 75 mg/m^2 cisplatin day 1, 28-day cycle (Burris)) is on record as 650 mg/m^2. Moreover, the “concentration of DHO remaining in the plasma” value in series [6] is “about 100 ng/mL”.
In the case of `Cc1c(-c2ccc(-c3ccccc3F)cc2)nc2ccc(F)cc2c1C(=O)O` [Brequinar sodium], the tumor response observed entry in series [7] is on record as “One mixed response”.
